# Data from PMC6024615, “Effect of Biliary Drainage on the Toxicity and Toxicokinetics of Amanita exitialis in Beagles” (Toxins, 2018).
# Experiments:
# [1] = Peptide toxins in the bile of beagles with biliary drainage; assay type: in vivo, beagle dogs; conditions: for Accumulated amounts excreted in bile / percentage of total bile excretion, Accumulated amounts: 0–4 days; for ratio of peptide toxins in bile to excretion in urine and bile: mean ± SD
# Method: (§1) The study was approved by National Institute of Occupational Health and Poison Control review board for animal experiments. Twenty-four male beagles (age, 8–10 months; weight, 10 ± 1 kg) were obtained from Beijing Institute of Xieerxin Biology Resource (Beijing, China). They were randomly divided into four groups of six animals each: control, biliary drainage, and 20 and 60 mg/kg with biliary drainage groups. The biliary drainage operation was conducted in all groups barring the control group. The dogs were dressed in homemade underwear, coats, and Elizabeth circles for a week to ensure pre-experimental acclimatization (Figure S8a–c). After determining the baseline values for biochemical indicators, the dogs were fasted for 24 h but received water ad libitum. They were anesthetized by intravenous administration of pentobarbital sodium (3%, 1 mL/kg) during the surgery. A temperature of 38–39 °C was maintained with a warming mat. After skin preservation and sterilization, the abdominal cavity was opened through the central abdomen. The abdomen was explored and blunt dissection of the common bile duct was performed (Figure S8d). The common bile duct and its branches were ligated from the intestinal side. A 7.0-Fr drainage catheter (COOK, Bloomington, IN, USA) was percutaneously inserted into the gallbladder, and a medical drainage bag was connected to the drainage catheter coming out of the abdominal cavity. Each opened layer, including the peritoneum, abdominal wall muscle, and skin, was closed with suture. The operative incision was protected with sterile gauze and a bandage, and the dogs were dressed in homemade underwear, coats, and Elizabeth circles. The drainage bag was placed in the pocket of the coat (Figure S8e). After the anesthetic wore off, the dogs were placed in cages, and food and water were provided ad libitum. The operative incision was sterilized with iodophor twice a day until stitches were removed six days after surgery. The drainage bag was replaced every day. On the eighth day after surgery, the 20 and 60 mg/kg with biliary drainage groups were orally administered a lyophilized powder of Amanita exitialis in starch capsules. In control and bile drainage group, the beagle dogs were fed with empty capsules. Immediately after dosing, the animals were placed in their cages, and food and water were provided ad libitum. Dogs were sacrificed with an overdose of sodium pentobarbital at the end of the experiment. All procedures were performed according to the ethical standards of the National Institutes of Health Guide for Animal Welfare and approved by the Institutional Animal Care and Use Committee (EAWE-2017-005).
# (§2) Peptide toxins in blood and urine samples were analyzed as described previously. Bile samples from Days 0–1, Days 1–2, Days 2–3, and Days 3–4 were collected and stored in medical drainage bags and the bile volume was recorded. Plasma and urine samples were stored at 2–8 °C until analysis for peptide toxins.
# α-Amanitin, β-amanitin, γ-amanitin, and phallacidin were used as the standard reference materials. Aliquots (0.2 mL) of bile samples were transferred into 2-mL polypropylene centrifuge tubes in duplicates. Next, 1 mL of acetonitrile was added to each tube. After vortex-mixing for 1 min, each sample was sonicated for 30 min and centrifuged at 11,200× g for 10 min at 4 °C. The supernatants were loaded on solid-phase extraction columns (Oasis PRiME HLB, 60 mg, 3 cc). The columns were then washed with 3 mL of methanol/ultrapure water (v/v: 5/95). The eluent was evaporated in a stream of nitrogen at room temperature. The dry residue was dissolved in 0.2 mL of ultrapure water and analyzed by UPLC-ESI-MS/MS.
# (§3) UPLC and MS/MS parameters were as described in our previous study. The limit of detection and limit of quantitation of each toxin in the bile were 0.03 mg/kg and 0.5 mg/kg, respectively.
# [2] = Peptide toxins in the urine of beagles with biliary drainage; assay type: in vivo, beagle dogs; conditions: for Total (accumulated) amount excreted in urine / percentage of total urine excretion, Total: 0–4 days
# Method: as §1, §2, §3
# [3] = 0-1 d, 60 mg/kg with biliary drainage group
# [4] = 0–1 days, 20 mg/kg with biliary drainage group
# [5] = 0–1 days, 60 mg/kg with biliary drainage group
# [6] = 20 mg/kg with biliary drainage group
# [7] = 60 mg/kg with biliary drainage group
# [8] = 1-2 d, 20 mg/kg with biliary drainage group
# [9] = 1-2 d, 60 mg/kg with biliary drainage group
# [10] = 1–2 days, 20 mg/kg with biliary drainage group
# [11] = 1–2 days, 60 mg/kg with biliary drainage group
# [12] = 2-3 d, 20 mg/kg with biliary drainage group
# [13] = 2-3 d, 60 mg/kg with biliary drainage group
# [14] = 2–3 days, 20 mg/kg with biliary drainage group
# [15] = 2–3 days, 60 mg/kg with biliary drainage group
# [16] = 3-4d, 20 mg/kg with biliary drainage group
# [17] = 3-4d, 60 mg/kg with biliary drainage group
# [18] = 3–4 days, 20 mg/kg with biliary drainage group
# [19] = 3–4 days, 60 mg/kg with biliary drainage group
smiles,measurement,setting,value
CC[C@H](C)[C@@H]1NC(=O)CNC(=O)[C@@H]2Cc3c([nH]c4cc(O)ccc34)[S@+]([O-])C[C@H](NC(=O)CNC1=O)C(=O)N[C@@H](CC(N)=O)C(=O)N1C[C@H](O)C[C@H]1C(=O)N[C@@H]([C@@H](C)[C@@H](O)CO)C(=O)N2 [α-amanitin],detection rate of peptide toxins in bile,[1]; [3],83%
same,daily amount excreted in bile,[1]; [4],0.00007 mg
same,percentage of total bile excretion excreted daily,[1]; [4],100%
same,daily amount excreted in bile,[1]; [5],0.00061 mg
same,percentage of total bile excretion excreted daily,[1]; [5],100%
same,Accumulated amounts excreted in bile,[1]; [6],0.00007 mg
same,"percentage of total bile excretion, Accumulated amounts",[1]; [6],100%
same,Accumulated amounts excreted in bile,[1]; [7],0.00061 mg
same,"percentage of total bile excretion, Accumulated amounts",[1]; [7],100%
same,ratio of peptide toxins in bile to excretion in urine and bile,[1]; [6],less than 10%
same,ratio of peptide toxins in bile to excretion in urine and bile,"[1]; 20 mg/kg with biliary drainage group, listed as α-Amanitin",1.3 ± 2.4%
same,ratio of peptide toxins in bile to excretion in urine and bile,[1]; [7],less than 20%
same,ratio of peptide toxins in bile to excretion in urine and bile,"[1]; 60 mg/kg with biliary drainage group, listed as α-Amanitin",3.1 ± 2.5%
same,detection rate of peptide toxins in bile,[1]; [8],0%
same,toxin concentration in bile,[1]; [8],0 µg/L
same,detection rate of peptide toxins in bile,[1]; [9],0%
same,toxin concentration in bile,[1]; [9],0 µg/L
same,daily amount excreted in bile,[1]; [10],0(0%) mg
same,percentage of total bile excretion excreted daily,[1]; [10],0(0%)
same,daily amount excreted in bile,[1]; [11],0(0%) mg
same,percentage of total bile excretion excreted daily,[1]; [11],0(0%)
same,detection rate of peptide toxins in bile,[1]; [12],0%
same,toxin concentration in bile,[1]; [12],0 µg/L
same,detection rate of peptide toxins in bile,[1]; [13],0%
same,toxin concentration in bile,[1]; [13],0 µg/L
same,daily amount excreted in bile,[1]; [14],0(0%) mg
same,percentage of total bile excretion excreted daily,[1]; [14],0(0%)
same,daily amount excreted in bile,[1]; [15],0(0%) mg
same,percentage of total bile excretion excreted daily,[1]; [15],0(0%)
same,detection rate of peptide toxins in bile,[1]; [16],0%
same,toxin concentration in bile,[1]; [16],0 µg/L
same,detection rate of peptide toxins in bile,[1]; [17],0%
same,toxin concentration in bile,[1]; [17],0 µg/L
same,daily amount excreted in bile,[1]; [18],0(0%) mg
same,percentage of total bile excretion excreted daily,[1]; [18],0(0%)
same,daily amount excreted in bile,[1]; [19],0(0%) mg
same,percentage of total bile excretion excreted daily,[1]; [19],0(0%)
same,detection rate of peptide toxins in urine,[2]; [3],100%
same,daily amount excreted in urine,[2]; [4],0.0147 mg
same,percentage of total urine excretion excreted daily,"[2]; 0–1 days, 20 mg/kg with biliary drainage group, 20 mg/kg",more than 90%
same,percentage of total urine excretion excreted daily,"[2]; 0–1 days, 20 mg/kg with biliary drainage group, listed as α-Amanitin, 20 mg/kg",96.3%
same,daily amount excreted in urine,[2]; [5],0.0213 mg
same,percentage of total urine excretion excreted daily,"[2]; 0–1 days, 60 mg/kg with biliary drainage group, 60 mg/kg",more than 90%
same,percentage of total urine excretion excreted daily,"[2]; 0–1 days, 60 mg/kg with biliary drainage group, listed as α-Amanitin, 60 mg/kg",90.9%
same,Total (accumulated) amount excreted in urine,[2]; [6],0.0151 mg
same,"percentage of total urine excretion, Total",[2]; [6],100%
same,Total (accumulated) amount excreted in urine,[2]; [7],0.0222 mg
same,"percentage of total urine excretion, Total",[2]; [7],100%
same,time within which toxin was detected in urine,[2]; [6],two
same,time within which toxin was detected in urine,[2]; [7],three
same,detection rate of peptide toxins in urine,[2]; [8],100%
same,detection rate of peptide toxins in urine,[2]; [9],100%
same,daily amount excreted in urine,[2]; [10],0.0004 mg
same,percentage of total urine excretion excreted daily,[2]; [10],3.7%
same,daily amount excreted in urine,[2]; [11],0.0007 mg
same,percentage of total urine excretion excreted daily,[2]; [11],8.9%
same,detection rate of peptide toxins in urine,[2]; [12],0%
same,toxin content in urine,"[2]; 2-3d, 20 mg/kg with biliary drainage group, mean ± SD",0 µg/L
same,detection rate of peptide toxins in urine,[2]; [13],50%
same,daily amount excreted in urine,[2]; [14],0(0%) mg
same,percentage of total urine excretion excreted daily,[2]; [14],0(0%)
same,daily amount excreted in urine,[2]; [15],0.0001 mg
same,percentage of total urine excretion excreted daily,[2]; [15],0.2%
same,detection rate of peptide toxins in urine,[2]; [16],0%
same,toxin content in urine,[2]; [16],0 µg/L
same,detection rate of peptide toxins in urine,[2]; [17],0%
same,toxin content in urine,[2]; [17],0 µg/L
same,daily amount excreted in urine,[2]; [18],0(0%) mg
same,percentage of total urine excretion excreted daily,[2]; [18],0(0%)
same,daily amount excreted in urine,[2]; [19],0(0%) mg
same,percentage of total urine excretion excreted daily,[2]; [19],0(0%)
same,share of total urine excretion in the 0–2-day urine,"[2]; beagles with biliary drainage, both dose groups",more than 95%
